Laboratory results: ChEMBL document CHEMBL5120793, “A Natural Plant Ingredient, Menthone, Regulates T Cell Subtypes and Lowers Pro-inflammatory Cytokines of Rheumatoid Arthritis” (J Nat Prod, 2022)
Active and inactive are the calls of the source.

Assays:
CD4+ve Th [1] = test: Antiinflammatory activity against PMA induced DBA-1 mouse spleen CD4+ve Th cells assessed as reduction in IL-1beta mRNA level at 50 to 100 uM incubated for 24 hrs by RT-qPCR assay; assay type: functional, cell-based; settings: dose 50-100 µM
Mus musculus [2] = test: Antiarthritic activity against collagen-II induced rheumatoid arthritis DBA-1 mouse model assessed as reduction in clinical score at 100 mg/kg administered for 14 days on day 60 to day 74 post-immunization; assay type: functional, organism-based; settings: time 14.0 day
Mus musculus [3] = test: Antiarthritic activity against collagen-II induced rheumatoid arthritis DBA-1 mouse blood CD4+ T cells assessed as reduction in T-bet mRNA level at 100 mg/kg administered for 14 days on day 60 to day 74 post-immunization by RT-qPCR assay; assay type: functional, organism-based; settings: T-cell, time 14.0 day
Mus musculus [4] = test: Antiarthritic activity against collagen-II induced rheumatoid arthritis DBA-1 mouse model assessed as reduction in serum IL-6 level at 100 mg/kg administered for 14 days on day 60 to day 74 post-immunization by ELISA; assay type: functional, organism-based; settings: time 14.0 day
Mus musculus [5] = test: Antiarthritic activity against collagen-II induced rheumatoid arthritis DBA-1 mouse spleen CD4+ T cells assessed as increase in GATA3 mRNA level at 100 mg/kg administered for 14 days on day 60 to day 74 post-immunization by RT-qPCR assay; assay type: functional, organism-based; settings: T-cell, time 14.0 day
Mus musculus [6] = test: Antiarthritic activity against collagen-II induced rheumatoid arthritis DBA-1 mouse model assessed as reduction in blood IL-1beta mRNA level at 100 mg/kg administered for 14 days on day 60 to day 74 post-immunization by RT-qPCR assay; assay type: functional, organism-based; settings: time 14.0 day
Mus musculus [7] = test: Antiarthritic activity against collagen-II induced rheumatoid arthritis DBA-1 mouse model assessed as reduction in serum TNF-alpha level at 100 mg/kg administered for 14 days on day 60 to day 74 post-immunization by ELISA; assay type: functional, organism-based; settings: time 14.0 day
Mus musculus [8] = test: Antiarthritic activity against collagen-II induced rheumatoid arthritis DBA-1 mouse spleen CD4+ T cells assessed as reduction in RORgammaT mRNA level at 100 mg/kg administered for 14 days on day 60 to day 74 post-immunization by RT-qPCR assay; assay type: functional, organism-based; settings: T-cell, time 14.0 day
Mus musculus [9] = test: Antiarthritic activity against collagen-II induced rheumatoid arthritis DBA-1 mouse model assessed as reduction in serum IL-1beta level at 100 mg/kg administered for 14 days on day 60 to day 74 post-immunization by ELISA; assay type: functional, organism-based; settings: time 14.0 day
Mus musculus [10] = test: Antiarthritic activity against collagen-II induced rheumatoid arthritis DBA-1 mouse spleen CD4+ T cells assessed as increase in Foxp3 mRNA level at 100 mg/kg administered for 14 days on day 60 to day 74 post-immunization by RT-qPCR assay; assay type: functional, organism-based; settings: T-cell, time 14.0 day
Mus musculus [11] = test: Antiarthritic activity against collagen-II induced rheumatoid arthritis DBA-1 mouse spleen CD4+ T cells assessed as reduction in T-bet mRNA level at 100 mg/kg administered for 14 days on day 60 to day 74 post-immunization by RT-qPCR assay; assay type: functional, organism-based; settings: T-cell, time 14.0 day
Mus musculus [12] = test: Antiarthritic activity against collagen-II induced rheumatoid arthritis DBA-1 mouse blood CD4+ T cells assessed as increase in GATA3 mRNA level at 100 mg/kg administered for 14 days on day 60 to day 74 post-immunization by RT-qPCR assay; assay type: functional, organism-based; settings: T-cell, time 14.0 day
Mus musculus [13] = test: Antiarthritic activity against collagen-II induced rheumatoid arthritis DBA-1 mouse model assessed as reduction in IL-17 protein level at 100 mg/kg administered for 14 days on day 60 to day 74 post-immunization by immunohistochemistry analysis; assay type: functional, organism-based; settings: time 14.0 day
Mus musculus [14] = test: Antiarthritic activity against collagen-II induced rheumatoid arthritis DBA-1 mouse model assessed as reduction in blood TNF-alpha mRNA level at 100 mg/kg administered for 14 days on day 60 to day 74 post-immunization by RT-qPCR assay; assay type: functional, organism-based; settings: time 14.0 day
Mus musculus [15] = test: Antiarthritic activity against collagen-II induced rheumatoid arthritis DBA-1 mouse model assessed as reduction in synovial hyperplasia at 100 mg/kg administered for 14 days on day 60 to day 74 post-immunization; assay type: functional, organism-based; settings: time 14.0 day
Mus musculus [16] = test: Antiarthritic activity against collagen-II induced rheumatoid arthritis DBA-1 mouse model assessed as reduction in TNF-alpha protein level at 100 mg/kg administered for 14 days on day 60 to day 74 post-immunization by immunohistochemistry analysis; assay type: functional, organism-based; settings: time 14.0 day
Mus musculus [17] = test: Antiarthritic activity against collagen-II induced rheumatoid arthritis DBA-1 mouse spleen CD4+ T cells assessed as reduction in Th17 cells differentiation at 100 mg/kg administered for 14 days on day 60 to day 74 post-immunization by flow cytometry analysis; assay type: functional, organism-based; settings: T-cell, time 14.0 day
CD4+ve Th [18] = test: Antiinflammatory activity against PMA induced DBA-1 mouse spleen CD4+ve Th cells assessed as reduction in TNF-alpha mRNA level at 50 to 100 uM incubated for 24 hrs by RT-qPCR assay; assay type: functional, cell-based; settings: dose 50-100 µM
Mus musculus [19] = test: Antiarthritic activity against collagen-II induced rheumatoid arthritis DBA-1 mouse blood CD4+ T cells assessed as reduction in RORgammaT mRNA level at 100 mg/kg administered for 14 days on day 60 to day 74 post-immunization by RT-qPCR assay; assay type: functional, organism-based; settings: T-cell, time 14.0 day
Mus musculus [20] = test: Antiarthritic activity against collagen-II induced rheumatoid arthritis DBA-1 mouse spleen CD4+ T cells assessed as reduction in Th1 cells differentiation at 100 mg/kg administered for 14 days on day 60 to day 74 post-immunization by flow cytometry analysis; assay type: functional, organism-based; settings: T-cell, time 14.0 day
CD4+ve Th [21] = test: Antiinflammatory activity against PMA induced DBA-1 mouse spleen CD4+ve Th cells assessed as reduction in IL-6 mRNA level at 50 to 100 uM incubated for 24 hrs by RT-qPCR assay; assay type: functional, cell-based; settings: dose 50-100 µM
Mus musculus [22] = test: Antiarthritic activity against collagen-II induced rheumatoid arthritis DBA-1 mouse blood CD4+ T cells assessed as reduction in Th17 cells differentiation at 100 mg/kg administered for 14 days on day 60 to day 74 post-immunization by flow cytometry analysis; assay type: functional, organism-based; settings: T-cell, time 14.0 day
Mus musculus [23] = test: Antiarthritic activity against collagen-II induced rheumatoid arthritis DBA-1 mouse blood CD4+ T cells assessed as increase in Foxp3 mRNA level at 100 mg/kg administered for 14 days on day 60 to day 74 post-immunization by RT-qPCR assay; assay type: functional, organism-based; settings: T-cell, time 14.0 day
Mus musculus [24] = test: Antiarthritic activity against collagen-II induced rheumatoid arthritis DBA-1 mouse model assessed as reduction in blood IL-6 mRNA level at 100 mg/kg administered for 14 days on day 60 to day 74 post-immunization by RT-qPCR assay; assay type: functional, organism-based; settings: time 14.0 day
Mus musculus [25] = test: Antiarthritic activity against collagen-II induced rheumatoid arthritis DBA-1 mouse blood CD4+ T cells assessed as reduction in Th1 cells differentiation at 100 mg/kg administered for 14 days on day 60 to day 74 post-immunization by flow cytometry analysis; assay type: functional, organism-based; settings: T-cell, time 14.0 day
Mus musculus [26] = test: Antiarthritic activity against collagen-II induced rheumatoid arthritis DBA-1 mouse model assessed as reduction in damage of articular cartilage at 100 mg/kg administered for 14 days on day 60 to day 74 post-immunization; assay type: functional, organism-based; settings: time 14.0 day
Mus musculus [27] = test: Antiarthritic activity against collagen-II induced rheumatoid arthritis DBA-1 mouse model assessed as reduction in IL-1beta protein level at 100 mg/kg administered for 14 days on day 60 to day 74 post-immunization by immunohistochemistry analysis; assay type: functional, organism-based; settings: time 14.0 day

Measured: Activity

CC(C)[C@@H]1CC[C@@H](C)CC1=O
active: all assays above
